Consider 27 compounds from patent US20220370453A1 (Storm Therapeutics Ltd, priority 2019, published 2022).

Experiment [1] concerns the target T1, BCDIN3D (Homo sapiens, UniProt Q7Z5W3).
T1 sequence (Q7Z5W3 1-292): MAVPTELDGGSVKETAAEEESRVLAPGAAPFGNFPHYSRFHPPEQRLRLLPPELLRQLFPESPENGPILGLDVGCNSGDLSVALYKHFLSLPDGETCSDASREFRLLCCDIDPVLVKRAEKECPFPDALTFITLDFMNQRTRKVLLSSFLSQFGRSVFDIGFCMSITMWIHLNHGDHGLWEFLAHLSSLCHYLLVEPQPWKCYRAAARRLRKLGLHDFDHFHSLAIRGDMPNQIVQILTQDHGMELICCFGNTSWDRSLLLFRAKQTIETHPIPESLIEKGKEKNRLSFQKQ
Put plainly: BCDIN3D InCellPulse thermal stability assay in transfected A549 cells. The class given is cell-based. The conditions noted are these: heat shock 58° C. 15 min. The gist of the method:
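Thermal stabilisation read-out: after a 15 min 58 °C heat shock, ePL-tagged BCDIN3D in transiently transfected A549 cells (1500/well) was quantified by enzyme-fragment complementation luminescence. Compounds were pre-incubated with cells 1 h at 37 °C, 0.6% DMSO final.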

Experiment [2] concerns the target T1, BCDIN3D. In words: BCDIN3D IC50 RFMS (RapidFire) assay with mini-helix. The class given is biochemical. The conditions noted are these: 25 nM enzyme. The gist of the method: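 SAH formation was measured by RapidFire mass spectrometry with D4- and 13C10-SAH internal standards after TCA quench. Substrates 6 μM SAM and 0.2 μM mini-helix reacted 1 h at 37 °C with 25 nM enzyme, which had been preincubated 10 min with compound (1% DMSO) in Tris pH 8.0 buffer with DTT, EDTA, BSA.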

[3] abbreviates: transiently transfected A549 cells.
Where [4] appears, read: mini-helix substrate 0.2 μM, SAM 6 μM.
Where [5] appears, read: A549 cells transiently transfected with ePL-BCDIN3D, 1 h pre-incubation.
Where [6] appears, read: mini-helix 0.2 μM and SAM 6 μM as substrates, 1 hr at 37° C.

Take `[2H]C([2H])([2H])n1ncc2c(NC(C)(C)C)nc(NC[C@H](N)c3ccccc3)nc21` [Compound 4.55, N6-[(2R)-2-amino-2-phenyl-ethyl]-N4-tert-butyl-1-(trideuteriomethyl)pyrazolo[3,4-d]pyrimidine-4,6-diamine]: the IC50 stood at 152 nM against BCDIN3D [1] (setting [3]) and 133 nM against BCDIN3D [2] (setting [4]).

As for `Cn1ncc2c(N[C@H]3C[C@@H](F)C3)nc(NC[C@H](N)c3ccccc3)nc21` [Compound 4.90, N6-[(2R)-2-amino-2-phenyl-ethyl]-N4-(3-fluorocyclobutyl)-1-methyl-pyrazolo[3,4-d]pyrimidine-4,6-diamine], the IC50 is 989 nM at BCDIN3D [1] (setting [3]) and 576 nM at BCDIN3D [2] (setting [4]).

For `Cn1ncc2c(NCc3ccc(F)cc3F)nc(NCC3(N)CC3)nc21` [Compound 2.26], the results for the IC50 at BCDIN3D [1] (setting [3]) and against BCDIN3D [2] (setting [4]) were 4650 nM and 1000 nM, respectively.

For the compound `Cn1ncc2c(NCC(F)(F)F)nc(NCC(N)c3ccccc3)nc21` (stereo not drawn) [Compound 4.44, 6-N-(2-amino-2-phenylethyl)-1-methyl-4-N-(2,2,2-trifluoroethyl)pyrazolo[3,4-d]pyrimidine-4,6-diamine], the IC50 turned out to be 992 nM against BCDIN3D [1] (setting [3]) and 527 nM against BCDIN3D [2] (setting [4]).

For the compound `Cc1ccc(CNc2nc(NCC(N)c3ccccc3F)nc3c2cnn3C)cc1Cl` (stereo not drawn) [Compound 5.12, 6-N-[2-amino-2-(2-fluorophenyl)ethyl]-4-N-[(3-chloro-4-methylphenyl)methyl]-1-methylpyrazolo[3,4-d]pyrimidine-4,6-diamine], the IC50 on BCDIN3D [1] (setting [3]) was determined as 643 nM; against BCDIN3D [2] (setting [4]), 345 nM.

On to `Cn1ncc2c(NC(C)(C)C)nc(NC[C@@H](N)c3ccccc3F)nc21` [Compound 7.11, N6-[(2S)-2-amino-2-(2-fluorophenyl)ethyl]-N4-tert-butyl-1-methyl-pyrazolo[3,4-d]pyrimidine-4,6-diamine], for which the IC50 at BCDIN3D [1] (setting [5]) was 4180 nM; against BCDIN3D [2] (setting [6]), 181 nM.

On to `CC(C)Nc1nc(NC[C@H](N)c2ccccc2)nc2c1cnn2C` [Compound 4.47, 6-N-[(2R)-2-amino-2-phenylethyl]-1-methyl-4-N-propan-2-ylpyrazolo[3,4-d]pyrimidine-4,6-diamine], for which the results for the IC50 against BCDIN3D [1] (setting [3]) and on BCDIN3D [2] (setting [4]) were 667 nM and 253 nM, respectively.

For `Cn1ncc2c(NC(C)(C)C(F)(F)F)nc(NC[C@H](N)c3cccc(Br)c3)nc21` [Compound 5.16, N6-[(2R)-2-amino-2-(3-bromophenyl)ethyl]-1-methyl-N4-(2,2,2-trifluoro-1,1-dimethyl-ethyl)pyrazolo[3,4-d]pyrimidine-4,6-diamine], the concentration for half-maximal inhibition (IC50) came to 38.5 nM on BCDIN3D [1] (setting [3]) and 41.7 nM against BCDIN3D [2] (setting [4]).

For the compound `Cn1ncc2c(Nc3ccccc3)nc(NCC3(N)CCCC3)nc21` [Compound 3.21, 6-N-[(1-aminocyclopentyl)methyl]-1-methyl-4-N-phenylpyrazolo[3,4-d]pyrimidine-4,6-diamine], the IC50 came out at 2000 nM on BCDIN3D [1] (setting [3]) and 1440 nM against BCDIN3D [2] (setting [4]).

As to `Cc1ccc(CNc2nc(NCC3(N)CC3)nc3c2cnn3C)cc1Cl` [Compound 2.01, 6-N-[(1-Aminocyclopropyl)methyl]-4-N-[(3-chloro-4-methylphenyl)methyl]-1-methylpyrazolo[3,4-d]pyrimidine-4,6-diamine], the values for the IC50 against BCDIN3D [1] (setting [3]) and on BCDIN3D [2] (setting [4]) were 707 nM and 275 nM, respectively.

`CC1CC1CNc1nc(NC[C@H](N)c2ccccc2)nc2c1cnn2C` (stereo partly drawn) [Compound 4.58, N6-[(2R)-2-amino-2-phenyl-ethyl]-1-methyl-N4-[(2-methylcyclopropyl)methyl]pyrazolo[3,4-d]pyrimidine-4,6-diamine]: the IC50 against BCDIN3D [1] (setting [3]) turned out to be 184 nM; against BCDIN3D [2] (setting [4]), 70.4 nM.

With `Cn1ncc2c(NC3CC4(COC4)C3)nc(NC[C@H](N)c3ccccc3)nc21` [Compound 4.95, N6-[(2R)-2-amino-2-phenyl-ethyl]-1-methyl-N4-(2-oxaspiro[3.3]heptan-6-yl)pyrazolo[3,4-d]pyrimidine-4,6-diamine], the IC50 at BCDIN3D [1] (setting [3]) turned out to be 456 nM; against BCDIN3D [2] (setting [4]), 374 nM.

In the case of `Cn1ncc2c(Nc3ccc(F)cc3)nc(NCC3(N)CC3)nc21` [Compound 2.08, 6-N-[(1-aminocyclopropyl)methyl]-4-N-(4-fluorophenyl)-1-methylpyrazolo[3,4-d]pyrimidine-4,6-diamine], the IC50 worked out at 2720 nM against BCDIN3D [1] (setting [3]) and 242 nM against BCDIN3D [2] (setting [4]).

Consider `Cn1ncc2c(Nc3cccc(-c4ccccc4)c3)nc(NCCN)nc21` [Compound 1.16, N6-(2-aminoethyl)-N4-{[1,1′-biphenyl]-3-yl}-1-methyl-1H-pyrazolo[3,4-d]pyrimidine-4,6-diamine], for which the IC50 at BCDIN3D [1] (setting [5]) was found to be 1700 nM; on BCDIN3D [2] (setting [6]), 744 nM.

For the compound `Cn1ncc2c(NC(C)(C)CO)nc(NC[C@H](N)c3ccccc3)nc21` [Compound 4.71, 2-[[6-[[(2R)-2-amino-2-phenyl-ethyl]amino]-1-methyl-pyrazolo[3,4-d]pyrimidin-4-yl]amino]-2-methyl-propan-1-ol], the concentration for half-maximal inhibition (IC50) was 1200 nM on BCDIN3D [1] (setting [3]) and 1400 nM at BCDIN3D [2] (setting [4]).

In the case of `Cn1ncc2c(Nc3cccc(Cl)c3)nc(NCC3(N)CC3)nc21` [Compound 2.35, 6-N-[(1-aminocyclopropyl)methyl]-4-N-(3-chlorophenyl)-1-methylpyrazolo[3,4-d]pyrimidine-4,6-diamine], the half-inhibitory concentration (IC50) against BCDIN3D [1] (setting [3]) worked out at 1980 nM; against BCDIN3D [2] (setting [4]), 260 nM.

For the compound `Cn1ncc2c(Nc3ccc(C(F)(F)F)cc3)nc(NCC(N)C3CC3)nc21` (stereo not drawn) [Compound 3.13, 6-N-(2-amino-2-cyclopropylethyl)-1-methyl-4-N-[4-(trifluoromethyl)phenyl]pyrazolo[3,4-d]pyrimidine-4,6-diamine], the IC50 at BCDIN3D [1] (setting [3]) came to 510 nM; on BCDIN3D [2] (setting [4]) it was 180 nM.

Turning to `Cn1ncc2c(Nc3ccc(C(F)(F)F)nc3)nc(NC[C@H](N)c3ccccc3)nc21` [Compound 7.08, N6-[(2R)-2-amino-2-phenyl-ethyl]-1-methyl-N4-[6-(trifluoromethyl)-3-pyridyl]pyrazolo[3,4-d]pyrimidine-4,6-diamine], the IC50 came out at 223 nM on BCDIN3D [1] (setting [5]) and 33.4 nM against BCDIN3D [2] (setting [6]).

Take `Cc1nn(C)c2nc(NCC(C)(C)N)cc(NCc3cccc(C(F)(F)F)c3)c12` [Compound 1.38, 6-N-(2-Amino-2-methylpropyl)-1,3-dimethyl-4-N-[[3-(trifluoromethyl)phenyl]methyl]pyrazolo[3,4-b]pyridine-4,6-diamine]: the half-maximal inhibitory concentration (IC50) is 4000 nM at BCDIN3D [1] (setting [5]) and 8630 nM against BCDIN3D [2] (setting [6]).

As to `Cn1ncc2c(Nc3ccc(C(F)(F)F)cc3)nc(NCC(N)c3ccccc3Cl)nc21` (stereo not drawn) [Compound 5.09, 6-N-[2-amino-2-(2-chlorophenyl)ethyl]-1-methyl-4-N-[4-(trifluoromethyl)phenyl]pyrazolo[3,4-d]pyrimidine-4,6-diamine], the values for the IC50 at BCDIN3D [1] (setting [3]) and against BCDIN3D [2] (setting [4]) were 55.9 nM and 127 nM, respectively.

As to `CC(C)(C)Nc1nc(NC[C@H](N)c2ccccc2)nc2c1cnn2C1CC1` [Compound 4.121, N6-[(2R)-2-amino-2-phenyl-ethyl]-N4-tert-butyl-1-cyclopropyl-pyrazolo[3,4-d]pyrimidine-4,6-diamine], the IC50 is 4810 nM at BCDIN3D [1] (setting [3]) and 6450 nM against BCDIN3D [2] (setting [4]).

Take `COc1ccc(Nc2nc(NCC3(N)CC3)nc3c2cnn3C)cc1Cl` [Compound 2.04, 6-N-[(1-aminocyclopropyl)methyl]-4-N-(3-chloro-4-methoxyphenyl)-1-methylpyrazolo[3,4-d]pyrimidine-4,6-diamine]: the IC50 on BCDIN3D [1] (setting [3]) was 1800 nM; against BCDIN3D [2] (setting [4]) it was 60.8 nM.

For the compound `Cn1ncc2c(Nc3ccc(C(F)(F)F)nc3)nc(NCC(N)c3ccccc3)nc21` (stereo not drawn) [Compound 4.25, 6-N-(2-amino-2-phenylethyl)-1-methyl-4-N-[6-(trifluoromethyl)pyridin-3-yl]pyrazolo[3,4-d]pyrimidine-4,6-diamine], the IC50 amounted to 319 nM against BCDIN3D [1] (setting [3]) and 50.7 nM against BCDIN3D [2] (setting [4]).

For `Cn1ncc2c(NC(C)(C)C)nc(NC[C@@H](N)c3ccccc3)nc21` [Compound 4.54, 6-N-[(2S)-2-amino-2-phenylethyl]-4-N-tert-butyl-1-methylpyrazolo[3,4-d]pyrimidine-4,6-diamine], the values for the IC50 against BCDIN3D [1] (setting [3]) and on BCDIN3D [2] (setting [4]) were 3110 nM and 1970 nM, respectively.

Take `[2H]C([2H])([2H])n1ncc2c(NC(C)(C)C)nc(NCC(N)c3ccccc3F)nc21` (stereo in doubt) [Compound 7.17, N6-[(2S)-2-amino-2-(2-fluorophenyl)ethyl]-N4-tert-butyl-1-(trideuteriomethyl)pyrazolo[3,4-d]pyrimidine-4,6-diamine]: the half-maximal inhibitory concentration (IC50) is 2140 nM on BCDIN3D [1] (setting [5]) and 981 nM against BCDIN3D [2] (setting [6]).

Turning to `Cn1ncc2c(Nc3ccc(OC(F)F)cc3)nc(NC[C@H](N)c3ccccc3)nc21` [Compound 4.16, N6-[(2R)-2-amino-2-phenyl-ethyl]-N4-[4-(difluoromethoxy)phenyl]-1-methyl-pyrazolo[3,4-d]pyrimidine-4,6-diamine], the IC50 against BCDIN3D [1] (setting [3]) was determined as 46.3 nM; against BCDIN3D [2] (setting [4]) it was 40.8 nM.

Take `Cc1ccc(CNc2nc(NC[C@@H](N)CF)nc3c2cnn3C)cc1Cl` [Compound 7.14, 6-N-[(2R)-2-amino-3-fluoropropyl]-4-N-[(3-chloro-4-methylphenyl)methyl]-1-methylpyrazolo[3,4-d]pyrimidine-4,6-diamine]: the IC50 worked out at 6320 nM on BCDIN3D [1] (setting [5]) and 5650 nM against BCDIN3D [2] (setting [6]).
